Reference: patent US20080009418A1, “Selective Inhibitors” (Alchemia LTD., priority 2004, published 2008)

Legend:
[1] = target: T1, Human δ-opioid (DOP) (Homo sapiens, UniProt P41143); assay: Radioligand binding, human δ-opioid (DOP) membranes, FlashPlate, [3H]-Bremazocine; details: compound at 10 μM; [3H]-Bremazocine
T1 construct: purchased Perkin Elmer Biosignal
In short: (§1)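 Cloned human receptor membranes were coated onto FlashPlate wells and incubated with radioligand and compound (added from a 0.5 mM DMSO daughter plate) for 1 hour at room temperature in the dark. Scintillation counting gave percent inhibition, with DMSO defining total and reference ligand defining non-specific binding.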

[2] = target: T2, Human κ-Opioid (KOP) (Homo sapiens, UniProt P41145); assay: Radioligand binding, human κ-opioid (KOP) membranes, filtration, [3H]-Diprenorphine; details: compound at 10 μM; [3H]-Diprenorphine
T2 construct: purchased Perkin Elmer Biosignal
T2 sequence (P41145 whole entry): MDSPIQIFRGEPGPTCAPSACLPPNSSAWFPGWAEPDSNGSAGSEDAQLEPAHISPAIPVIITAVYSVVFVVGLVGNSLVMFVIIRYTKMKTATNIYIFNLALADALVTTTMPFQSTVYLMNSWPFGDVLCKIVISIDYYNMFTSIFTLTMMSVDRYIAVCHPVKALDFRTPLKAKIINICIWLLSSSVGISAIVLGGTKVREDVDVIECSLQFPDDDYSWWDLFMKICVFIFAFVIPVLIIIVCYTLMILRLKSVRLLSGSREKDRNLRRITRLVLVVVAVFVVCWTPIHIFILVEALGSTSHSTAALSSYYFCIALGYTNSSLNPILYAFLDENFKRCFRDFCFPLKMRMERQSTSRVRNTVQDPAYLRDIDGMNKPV
In short: (§2)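 Filtration binding on cloned human receptor membranes (1 Unit/well), [125I]-Substance P for NK1 and [3H]-Diprenorphine for KOP, 1 h at room temperature. Filters PEI-presoaked, washed with cold 50 mM Tris-HCl pH 7.4, counted by scintillation; percent inhibition calculated, reference ligand defining non-specific binding.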

[3] = target: T3, Human Melanocortin (MC3) (Homo sapiens, UniProt P41968); assay: Radioligand binding, human melanocortin MC3 membranes, FlashPlate, [125I]-NDP-αMSH; details: compound at 10 μM, [125I]-NDP-αMSH
T3 construct: purchased Perkin Elmer Biosignal
T3 sequence (P41968 whole entry): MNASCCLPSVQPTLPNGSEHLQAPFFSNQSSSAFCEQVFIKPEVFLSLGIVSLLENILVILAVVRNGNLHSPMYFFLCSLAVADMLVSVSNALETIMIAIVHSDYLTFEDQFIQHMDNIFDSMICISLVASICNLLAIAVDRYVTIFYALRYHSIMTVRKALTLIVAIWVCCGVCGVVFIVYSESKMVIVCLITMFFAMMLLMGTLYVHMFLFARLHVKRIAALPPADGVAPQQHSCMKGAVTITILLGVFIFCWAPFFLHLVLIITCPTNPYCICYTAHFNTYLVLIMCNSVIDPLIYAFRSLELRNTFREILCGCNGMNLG
In short: as §1

[4] = target: T4, Human Melanocortin (MC4) (Homo sapiens, UniProt P32245); assay: Radioligand binding, human melanocortin MC4 membranes, FlashPlate, [125I]-NDP-αMSH; details: compound at 10 μM; [125I]-NDP-αMSH
T4 construct: purchased Perkin Elmer Biosignal
T4 sequence (P32245 whole entry): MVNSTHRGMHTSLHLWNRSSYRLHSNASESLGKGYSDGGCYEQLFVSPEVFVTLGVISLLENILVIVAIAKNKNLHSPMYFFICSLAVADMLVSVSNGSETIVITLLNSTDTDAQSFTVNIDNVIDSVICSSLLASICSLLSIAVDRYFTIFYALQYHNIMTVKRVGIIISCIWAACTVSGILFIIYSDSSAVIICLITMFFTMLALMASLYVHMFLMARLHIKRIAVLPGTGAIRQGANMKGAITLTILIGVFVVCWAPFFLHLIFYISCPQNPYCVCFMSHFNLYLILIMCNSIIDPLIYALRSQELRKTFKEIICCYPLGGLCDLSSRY
In short: as §1

[5] = target: T5, Human melanocortin (MC5) (Homo sapiens, UniProt P33032); assay: Radioligand binding, human melanocortin MC5 membranes, FlashPlate, [125I]-NDP-αMSH; details: compound at 10 μM; [125I]-NDP-αMSH
T5 construct: purchased Perkin Elmer Biosignal
T5 sequence (P33032 whole entry): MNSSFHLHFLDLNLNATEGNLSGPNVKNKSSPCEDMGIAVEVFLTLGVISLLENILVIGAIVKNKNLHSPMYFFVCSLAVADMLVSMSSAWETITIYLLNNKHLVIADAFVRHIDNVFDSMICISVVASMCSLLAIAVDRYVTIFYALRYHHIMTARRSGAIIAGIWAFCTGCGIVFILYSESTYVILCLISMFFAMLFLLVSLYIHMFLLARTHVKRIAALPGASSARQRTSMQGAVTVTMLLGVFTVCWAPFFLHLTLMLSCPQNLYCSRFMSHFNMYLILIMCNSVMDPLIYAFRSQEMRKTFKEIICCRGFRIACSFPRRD
In short: as §1

[6] = target: T6, Human melanin-concentrating hormone (MCH1) (Homo sapiens, UniProt Q99705); assay: Radioligand binding, human melanin-concentrating hormone MCH1 membranes, FlashPlate, [125I]-S36057; details: compound at 10 μM; [125I]-S36057
T6 construct: purchased Perkin Elmer Biosignal
T6 sequence (Q99705 whole entry): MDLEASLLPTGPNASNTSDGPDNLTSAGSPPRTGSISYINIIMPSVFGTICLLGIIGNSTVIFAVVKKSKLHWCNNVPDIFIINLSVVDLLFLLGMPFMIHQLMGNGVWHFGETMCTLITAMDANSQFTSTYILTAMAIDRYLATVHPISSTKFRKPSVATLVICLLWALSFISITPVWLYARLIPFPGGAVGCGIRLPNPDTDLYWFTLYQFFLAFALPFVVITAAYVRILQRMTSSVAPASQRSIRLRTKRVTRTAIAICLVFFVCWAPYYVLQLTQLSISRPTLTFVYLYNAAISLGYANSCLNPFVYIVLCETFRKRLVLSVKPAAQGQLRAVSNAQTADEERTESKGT
In short: as §1

[7] = target: T7, Human μ-opioid (MOP) (Homo sapiens, UniProt P35372); assay: Radioligand binding, human μ-opioid (MOP) membranes, FlashPlate, [3H]-Naloxone; details: compound at 10 μM; [3H]-Naloxone
T7 construct: purchased Perkin Elmer Biosignal
T7 sequence (P35372 whole entry): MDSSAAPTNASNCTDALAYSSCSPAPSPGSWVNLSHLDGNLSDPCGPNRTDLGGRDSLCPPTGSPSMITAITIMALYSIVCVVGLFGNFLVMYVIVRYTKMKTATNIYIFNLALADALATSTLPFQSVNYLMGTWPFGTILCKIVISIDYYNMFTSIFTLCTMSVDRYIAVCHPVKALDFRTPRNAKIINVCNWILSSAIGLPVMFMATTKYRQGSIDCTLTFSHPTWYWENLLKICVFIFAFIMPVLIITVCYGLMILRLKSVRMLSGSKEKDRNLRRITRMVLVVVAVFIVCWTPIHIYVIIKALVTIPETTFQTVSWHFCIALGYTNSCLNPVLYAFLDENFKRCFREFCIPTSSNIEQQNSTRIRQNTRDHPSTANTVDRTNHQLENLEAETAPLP
In short: as §1

[8] = target: T8, Human neurokinin (NK1) (Homo sapiens, UniProt P25103); assay: Radioligand binding, human neurokinin NK1 membranes, filtration, [125I]-Substance P; details: compound at 10 μM, [125I]-Substance P
T8 construct: purchased Perkin Elmer Biosignal
T8 sequence (P25103 whole entry): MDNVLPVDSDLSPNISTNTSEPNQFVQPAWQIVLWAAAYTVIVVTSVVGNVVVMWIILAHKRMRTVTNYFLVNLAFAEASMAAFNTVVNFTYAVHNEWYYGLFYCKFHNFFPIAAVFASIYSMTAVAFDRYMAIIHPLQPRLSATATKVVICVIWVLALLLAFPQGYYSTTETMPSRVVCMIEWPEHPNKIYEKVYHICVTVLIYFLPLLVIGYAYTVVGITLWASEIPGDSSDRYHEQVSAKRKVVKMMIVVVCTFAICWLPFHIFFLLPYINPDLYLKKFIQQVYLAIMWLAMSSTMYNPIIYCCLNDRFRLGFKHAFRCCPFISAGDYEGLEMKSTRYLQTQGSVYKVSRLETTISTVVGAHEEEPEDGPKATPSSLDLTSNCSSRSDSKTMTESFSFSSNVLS
In short: as §2

[9] = target: T9, Human neuropeptide Y (NPY-Y1) (Homo sapiens, UniProt P25929); assay: Radioligand binding, human neuropeptide Y NPY-Y1 membranes, FlashPlate, [125I]-PYY; details: compound at 10 μM; [125I]-PYY
T9 construct: purchased Perkin Elmer Biosignal
T9 sequence (P25929 1-384): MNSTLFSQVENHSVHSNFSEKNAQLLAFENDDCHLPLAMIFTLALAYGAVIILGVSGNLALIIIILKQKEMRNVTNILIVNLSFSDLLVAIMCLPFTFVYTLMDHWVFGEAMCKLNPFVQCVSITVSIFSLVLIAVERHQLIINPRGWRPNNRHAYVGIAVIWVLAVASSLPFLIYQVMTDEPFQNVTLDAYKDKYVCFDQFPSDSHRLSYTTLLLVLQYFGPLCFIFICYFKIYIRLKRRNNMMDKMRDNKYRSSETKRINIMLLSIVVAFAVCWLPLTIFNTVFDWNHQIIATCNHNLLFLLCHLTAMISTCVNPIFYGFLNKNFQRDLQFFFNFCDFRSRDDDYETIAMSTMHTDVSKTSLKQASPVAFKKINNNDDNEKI
In short: as §1

[10] = target: T10, Human opioid (ORL1) (Homo sapiens, UniProt P41146); assay: Radioligand binding, human opioid ORL1 membranes, FlashPlate, [125I]-Nociceptin; details: compound at 10 μM; [125I]-Nociceptin
T10 construct: purchased Perkin Elmer Biosignal
T10 sequence (P41146 whole entry): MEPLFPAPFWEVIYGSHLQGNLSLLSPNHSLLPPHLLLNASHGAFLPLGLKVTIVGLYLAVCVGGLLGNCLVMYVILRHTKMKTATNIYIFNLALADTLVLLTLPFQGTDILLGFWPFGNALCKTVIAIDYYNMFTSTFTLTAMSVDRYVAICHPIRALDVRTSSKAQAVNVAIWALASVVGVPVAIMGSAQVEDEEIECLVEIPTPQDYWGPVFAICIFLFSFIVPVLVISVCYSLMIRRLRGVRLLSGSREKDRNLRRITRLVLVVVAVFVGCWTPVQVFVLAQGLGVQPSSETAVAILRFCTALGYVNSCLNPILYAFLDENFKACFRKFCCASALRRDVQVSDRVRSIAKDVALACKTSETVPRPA
In short: as §1

[11] = target: T11, Mouse urotensin (mUR2) (Mus musculus, UniProt Q8VIH9); assay: Radioligand binding, mouse urotensin mUR2 membranes, FlashPlate, [125I]-Urotensin II; details: compound at 10 μM; [125I]-Urotensin II
T11 construct: purchased Perkin Elmer Biosignal
T11 sequence (Q8VIH9 1-385): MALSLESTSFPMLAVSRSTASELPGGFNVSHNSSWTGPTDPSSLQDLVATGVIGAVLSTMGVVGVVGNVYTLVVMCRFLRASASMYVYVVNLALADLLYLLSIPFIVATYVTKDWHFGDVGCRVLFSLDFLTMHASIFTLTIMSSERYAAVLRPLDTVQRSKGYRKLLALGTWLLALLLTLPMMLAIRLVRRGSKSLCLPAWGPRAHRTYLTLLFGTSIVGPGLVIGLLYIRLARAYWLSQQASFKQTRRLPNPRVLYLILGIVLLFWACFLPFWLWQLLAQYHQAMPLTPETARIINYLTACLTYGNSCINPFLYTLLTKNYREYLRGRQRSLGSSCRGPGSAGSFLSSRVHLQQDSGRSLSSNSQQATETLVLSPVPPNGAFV
In short: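 Cloned mouse urotensin (mUR2) receptor membranes from Perkin Elmer Biosignal were immobilized in FlashPlate microplates using a proprietary coating. Each well got 19.5 μl buffer, then 0.5 μl of DMSO, reference ligand, or compound. Adding 5 μl of [125I]-Urotensin II, diluted to 5× final concentration in binding buffer, started binding. Plates were sealed with TopSeal-A and incubated 1 hour at room temperature in the dark. Wells were counted for 30 seconds each on a TopCount after a 60-second delay, and percentage inhibition was calculated.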

T1 sequence (P41143 whole entry): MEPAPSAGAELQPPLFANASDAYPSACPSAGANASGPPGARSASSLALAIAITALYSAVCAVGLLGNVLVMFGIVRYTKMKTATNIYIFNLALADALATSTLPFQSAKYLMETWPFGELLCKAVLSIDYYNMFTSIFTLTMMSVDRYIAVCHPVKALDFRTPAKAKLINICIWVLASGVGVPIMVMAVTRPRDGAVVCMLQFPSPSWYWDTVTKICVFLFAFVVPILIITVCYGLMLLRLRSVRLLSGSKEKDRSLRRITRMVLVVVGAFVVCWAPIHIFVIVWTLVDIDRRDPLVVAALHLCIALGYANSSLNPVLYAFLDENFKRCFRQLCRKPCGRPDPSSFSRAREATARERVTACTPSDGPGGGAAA

| Compound | A1: inhibition of radioligand binding, human δ-opioid (DOP) [1] | A2: inhibition of radioligand binding, human κ-opioid (KOP) [2] | A3: inhibition of radioligand binding, human melanocortin (MC3) [3] | A4: inhibition of radioligand binding, human melanocortin (MC4) [4] | A5: inhibition of radioligand binding, human melanocortin (MC5) [5] | A6: inhibition of radioligand binding, human melanin-concentrating hormone (MCH1) [6] | A7: inhibition of radioligand binding, human μ-opioid (MOP) [7] | A8: inhibition of radioligand binding, human neurokinin (NK1) [8] | A9: inhibition of radioligand binding, human neuropeptide Y (NPY-Y1) [9] | A10: inhibition of radioligand binding, human opioid (ORL1) [10] | A11: inhibition of radioligand binding, mouse urotensin (mUR2) [11] | A8: inhibition of radioligand binding, human neurokinin (NK1) ([8]; 10 µM) | A3: inhibition of radioligand binding, human melanocortin (MC3) ([3]; 10 µM) |
| --- | --- | --- | --- | --- | --- | --- | --- | --- | --- | --- | --- | --- | --- |
| CSC1O[C@H](COCc2ccccc2)[C@@H](O)[C@@H](OCc2ccc(-c3ccccc3)cc2)[C@H]1NC(=O)CNC(=N)N (stereo partly drawn) [compound 284] | − (“−” indicates less than 50% inhibition at 10 μM) | − (“−” indicates less than 50% inhibition at 10 μM) | − (“−” indicates less than 50% inhibition at 10 μM) | + (“+” indicates greater than 50% inhibition at 10 μM) | + (“+” indicates greater than 50% inhibition at 10 μM) | − (“−” indicates less than 50% inhibition at 10 μM) | − (“−” indicates less than 50% inhibition at 10 μM) | + (“+” indicates greater than 50% inhibition at 10 μM) | − (“−” indicates less than 50% inhibition at 10 μM) | − (“−” indicates less than 50% inhibition at 10 μM) | − (“−” indicates less than 50% inhibition at 10 μM) | – | – |
| COCC1OC(OCCc2ccccc2)C(NC(=O)CNC(=N)N)C(OCc2ccc(-c3ccccc3)cc2)C1O (stereo not drawn) [compound 548] | − (“−” indicates less than 50% inhibition at 10 μM) | − (“−” indicates less than 50% inhibition at 10 μM) | − (“−” indicates less than 50% inhibition at 10 μM) | − (“−” indicates less than 50% inhibition at 10 μM) | + (“+” indicates greater than 50% inhibition at 10 μM) | − (“−” indicates less than 50% inhibition at 10 μM) | − (“−” indicates less than 50% inhibition at 10 μM) | – | − (“−” indicates less than 50% inhibition at 10 μM) | − (“−” indicates less than 50% inhibition at 10 μM) | − (“−” indicates less than 50% inhibition at 10 μM) | + (“+” indicates greater than 50% inhibition at 10 μM) | – |
| NCCCC(=O)NC1C(OCc2ccc(Cl)cc2)OC(COCc2ccc(Cl)cc2)C(O)C1OCc1ccc(Cl)cc1 (single isomer, unassigned) [compound 494] | − (“−” indicates less than 50% inhibition at 10 μM) | − (“−” indicates less than 50% inhibition at 10 μM) | – | + (“+” indicates greater than 50% inhibition at 10 μM) | + (“+” indicates greater than 50% inhibition at 10 μM) | + (“+” indicates greater than 50% inhibition at 10 μM) | − (“−” indicates less than 50% inhibition at 10 μM) | + (“+” indicates greater than 50% inhibition at 10 μM) | − (“−” indicates less than 50% inhibition at 10 μM) | + (“+” indicates greater than 50% inhibition at 10 μM) | − (“−” indicates less than 50% inhibition at 10 μM) | – | + (“+” indicates greater than 50% inhibition at 10 μM) |
